Test [1] concerns phospho-IRF3 Ser 386. As to the kind of experiment: Cell test: dose response inhibition of phospho-IRF3 Ser 386 in MDA-MB-468 cells. Type of test: cell-based. To be noted: Homo sapiens, Poly(I:C) stimulation, read-out: IC50 of reference inhibitor in phospho-IRF3 cell assay. From the text: Cell Test Dose Response Inhibition of Phospho-IRF3 […] cell/MDAMB468/INH/PHOS/IMAG/pIRF3 1. Scope Although TBK1 and IKKε are best known as key players in the innate immune response, recent findings have pointed towards a role for TBK1 and IKKi in Ras-induced oncogenic transformation. TBK1 was identified as a RalB effector in the Ras-like (Ral)-guanine nucleotide exchange factor (GEF) pathway that is required for Ras-induced transformation. TBK1 directly activates IRF3 which, upon phosphorylation, homodimerizes and translocates to the nucleus where it activates processes involved with inflammation, immune regulation, cell survival and proliferation. This assay has been devised in order to assess the efficacy/potency of TBK1/IKKε inhibitor compounds based on the immunocytochemical detection of nuclear localised phospho-IRF3, a target directly downstream of TBK1. […] 2. Assay Overview Day 1: MDA-MB-468 cells are detached with HyQ-Tase, counted, and seeded into a 384-well clear bottom TC-surface plate at density of 10,000 cells per well in a total volume of 35 ul complete medium. Alternatively cells are directly seeded from frozen vials. […] Day 3: The primary antibody is washed off, an AlexaFluor488-conjugated secondary is added, cells are counterstained with propidium iodide followed by image acquisition on IMX Ultra high content reader. […]

Test [2] addresses TANK binding kinase (TBK1) (Homo sapiens (Human), UniProt Q9UHD2). The test is described as follows: TBK1 enzyme assay (384-well Flashplate kinase assay). Type of test: biochemical. To be noted: 10 μM ATP, 120 Min at 30° C. The method, then: Test for the Inhibition of TBK1
The kinase assay is performed as 384-well Flashplate assay (for e.g. Topcount measurement. 0.6 nM TANK binding kinase (TBK1), 800 nM biotinylated MELK-derived peptide (Biotin-Ah-Ah-[…]) SEQ ID NO: 2 and 10 μM ATP (spiked with 0.25 μCi ^33P-ATP/well) are incubated in a total volume of 50 μl (10 mM MOPS, 10 mM Mg-acetat, 0.1 mM EGTA, 1 mM DTT, 0.02% Brij35, 0.1% BSA, pH 7.5) with or without test compound for 120 Min at 30° C. The reaction is stopped with 25 μl 200 mM EDTA. After 30 Min at room temperature the liquid is removed and each well washed thrice with 100 μl 0.9% sodium chloride solution. Nonspecific reaction is determined in presence of 100 nM Staurosporine. Radioactivity is measured in a Topcount (PerkinElmer). Results (e.g. IC50-values) are calculated with program tools provided by the IT-department (e.g. AssayExplorer, Symyx).

For test [3], the target named is IKKε (Homo sapiens (Human), UniProt Q14164). The test is described as follows: IKKε kinase assay (384-well Flashplate). Type of test: biochemical. To be noted: 10 μM ATP, 2 hours at 30° C.; read-out: IKKε enzyme assay IC50. The method, then:
Test for the Inhibition of IKKε
IKKε—Kinase Assay (IKKepsilon)
The kinase assay is performed either as 384-well Flashplate assay (for e.g. Topcount measurement). […] The reaction is stopped with 25 μl 200 mM EDTA. After 30 Min at room temperature the liquid is removed and each well washed thrice with 100 μl 0.9% sodium chloride solution. […] Radioactivity is measured with Topcount (PerkinElmer). Results (e.g. IC50-values) are calculated with program tools provided by the IT-department (e.g. AssayExplorer, Symyx).

Drawing on patent US9249114B2, “Thiazole derivatives” (Merck Patent GmbH, priority 2011, dated 2016), this text covers IC50 for 22 molecules.

Chain of IKKε (Q14164 whole entry): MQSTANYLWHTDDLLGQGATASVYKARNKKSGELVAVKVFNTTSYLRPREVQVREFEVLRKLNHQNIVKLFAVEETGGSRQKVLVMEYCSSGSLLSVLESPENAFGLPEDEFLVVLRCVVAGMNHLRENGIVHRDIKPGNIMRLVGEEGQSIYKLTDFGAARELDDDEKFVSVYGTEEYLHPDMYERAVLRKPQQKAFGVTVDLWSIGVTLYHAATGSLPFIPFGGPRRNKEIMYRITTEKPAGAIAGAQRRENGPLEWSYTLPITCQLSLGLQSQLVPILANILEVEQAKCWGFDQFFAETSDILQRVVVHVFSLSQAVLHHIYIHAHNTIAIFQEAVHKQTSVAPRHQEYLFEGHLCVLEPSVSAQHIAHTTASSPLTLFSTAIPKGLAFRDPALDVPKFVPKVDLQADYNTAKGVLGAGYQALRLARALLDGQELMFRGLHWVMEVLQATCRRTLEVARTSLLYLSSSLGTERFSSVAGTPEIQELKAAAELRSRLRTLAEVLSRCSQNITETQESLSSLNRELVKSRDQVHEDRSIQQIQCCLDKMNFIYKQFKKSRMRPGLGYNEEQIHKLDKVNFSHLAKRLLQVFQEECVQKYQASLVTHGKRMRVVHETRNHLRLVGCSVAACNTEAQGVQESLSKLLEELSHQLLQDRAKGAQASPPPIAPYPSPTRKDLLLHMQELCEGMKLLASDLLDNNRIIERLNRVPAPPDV
Chain of TANK binding kinase (TBK1) (Q9UHD2 whole entry): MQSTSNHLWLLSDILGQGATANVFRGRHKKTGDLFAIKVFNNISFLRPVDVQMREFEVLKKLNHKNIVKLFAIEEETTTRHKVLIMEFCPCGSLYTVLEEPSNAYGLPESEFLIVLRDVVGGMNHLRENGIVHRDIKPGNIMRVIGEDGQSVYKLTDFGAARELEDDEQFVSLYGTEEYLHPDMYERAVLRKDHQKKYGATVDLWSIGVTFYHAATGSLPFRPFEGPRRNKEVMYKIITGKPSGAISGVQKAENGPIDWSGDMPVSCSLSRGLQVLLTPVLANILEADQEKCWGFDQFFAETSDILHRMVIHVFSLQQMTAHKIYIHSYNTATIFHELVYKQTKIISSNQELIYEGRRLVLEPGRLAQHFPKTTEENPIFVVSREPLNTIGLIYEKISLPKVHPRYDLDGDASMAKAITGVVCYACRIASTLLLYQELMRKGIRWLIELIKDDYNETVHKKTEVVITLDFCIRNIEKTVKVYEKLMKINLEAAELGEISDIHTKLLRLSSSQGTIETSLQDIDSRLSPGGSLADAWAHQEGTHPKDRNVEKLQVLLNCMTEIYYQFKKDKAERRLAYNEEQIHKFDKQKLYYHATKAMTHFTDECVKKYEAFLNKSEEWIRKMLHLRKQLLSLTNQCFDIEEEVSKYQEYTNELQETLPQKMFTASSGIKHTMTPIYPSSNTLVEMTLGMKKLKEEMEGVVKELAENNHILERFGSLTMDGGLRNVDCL

Take `O=C(NCCCNc1nc(Nc2cccc(NC(=O)N3CCCC3)c2)ncc1I)c1cccs1` [BX-795]: the IC50 (in general, the concentration that inhibits the measured activity by half) in test [1] lay in the range of 200 to 800 nM. `CN1CCN(Cc2ccc(C(=O)Nc3sc(-c4ccncc4C(F)(F)F)nc3C(N)=O)cc2)CC1` [Compound A17, 5-[4-(4-methyl-piperazin-1-ylmethyl)-benzoylamino]-2-(3-trifluoromethyl-pyridin-4-yl)-thiazole-4-carboxylic acid amide]: the half-maximal inhibitory concentration (IC50) in test [2] came to 1400 nM; in test [3], 140 nM.

For `CN1CCN(Cc2ccc(C(=O)Nc3sc(-c4ccncc4Br)nc3C(N)=O)cc2)CC1` [Compound A18, 2-(3-bromo-pyridin-4-yl)-5-[4-(4-methyl-piperazin-1-ylmethyl)-benzoylamino]-thiazole-4-carboxylic acid amide], the IC50 in test [2] was 310 nM; in test [3], 190 nM. For `CN1CCN(Cc2ccc(C(=O)Nc3sc(-c4ccncc4F)nc3C(N)=O)cc2)CC1` [Compound A19, 2-(3-fluoro-pyridin-4-yl)-5-[4-(4-methyl-piperazin-1-ylmethyl)-benzoylamino]-thiazole-4-carboxylic acid amide] the same measures were 370 nM and 280 nM. For `CN1CCN(Cc2ccc(C(=O)Nc3sc(-c4ccncc4Cl)nc3C(N)=O)cc2)CC1` [Compound A20, 2-(3-chloro-pyridin-4-yl)-5-[4-(4-methyl-piperazin-1-ylmethyl)-benzoylamino]-thiazole-4-carboxylic acid amide] the same measures were 640 nM and 630 nM. For `COc1cnccc1-c1nc(C(N)=O)c(NC(=O)c2ccc(CN3CCN(C)CC3)cc2)s1` [Compound A21, 2-(3-methoxy-pyridin-4-yl)-5-[4-(4-methyl-piperazin-1-ylmethyl)-benzoylamino]-thiazole-4-carboxylic acid amide] the same measures were 46 nM and 14 nM. On to `Cc1cnccc1-c1nc(C(N)=O)c(NC(=O)c2ccc(CN3CCN(C)CC3)cc2)s1` [Compound A22, 2-(3-methyl-pyridin-4-yl)-5-[4-(4-methyl-piperazin-1-ylmethyl)-benzoylamino]-thiazole-4-carboxylic acid amide], for which the figures for the concentration for half-maximal inhibition (IC50) in test [2] and in test [3] were 350 nM and 300 nM, respectively. For `NC(=O)c1nc(-c2ccncc2)sc1NC(=O)c1ccc(CN2CCNCC2)cc1` [Compound A24, 5-(4-piperazin-1-ylmethyl-benzoylamino)-2-pyridin-4-yl-thiazole-4-carboxylic acid amide], in that order: 95 nM and 260 nM.

As for `CN1CCC(Cc2ccc(C(=O)Nc3sc(-c4ccncc4)nc3C(N)=O)cc2)CC1` [Compound A26, 5-[4-(1-methyl-piperidin-4-ylmethyl)-benzoylamino]-2-pyridin-4-yl-thiazole-4-carboxylic acid amide], the half-inhibitory concentration (IC50) in test [2] came to 100 nM; in test [3], 31 nM. For `CC(=O)N1CCN(Cc2ccc(C(=O)Nc3sc(-c4ccncc4)nc3C(N)=O)cc2)CC1` [Compound A27, 5-[4-(4-acetyl-piperazin-1-ylmethyl)-benzoylamino]-2-pyridin-4-yl-thiazole-4-carboxylic acid amide] the same measures were 140 nM and 100 nM. Turning to `CN1CCN(Cc2ccc(C(=O)Nc3sc(-c4ccncc4)nc3C(N)=O)cc2)CC1` [Compound A37, 5-[4-(4-methyl-piperazin-1-ylmethyl)-benzoylamino]-2-pyridin-4-yl-thiazole-4-carboxylic acid amide], the 50% inhibitory concentration (IC50) in test [2] amounted to 710 nM; in test [3] it was 200 nM. For `CN(C)Cc1ccc(C(=O)Nc2sc(-c3ccncc3)nc2C(N)=O)cc1` [Compound A40, 5-(4-dimethylaminomethyl-benzoylamino)-2-pyridin-4-yl-thiazole-4-carboxylic acid amide] the same measures were 1250 nM and 280 nM. For `NC(=O)c1nc(-c2ccncc2)sc1NC(=O)c1cn[nH]c1` [Compound A42, 5-[(1H-pyrazole-4-carbonyl)-amino]-2-pyridin-4-yl-thiazole-4-carboxylic acid amide], in that order: 2700 nM and 730 nM. For `NC(=O)c1nc(-c2ccncc2)sc1NC(=O)c1ccc(N2CCOCC2)nc1` [Compound A43, N-(4-carbamoyl-2-pyridin-4-yl-thiazol-5-yl)-6-morpholin-4-yl-nicotinamide] the same measures were 7300 nM and 2000 nM. Turning to `Cc1ccc(C(=O)Nc2sc(-c3ccncc3)nc2C(N)=O)cc1` [Compound A55, 5-(4-methyl-benzoylamino)-2-pyridin-4-yl-thiazole-4-carboxylic acid amide], the results for the half-inhibitory concentration (IC50) in test [2] and in test [3] were 10000 nM and 5300 nM, respectively.

`CN(C)c1ccc(C(=O)Nc2sc(-c3ccncc3)nc2C(N)=O)cc1` [Compound A57, 5-{[4-(dimethylamino)benzoyl]amino}-2-pyridin-4-yl-1,3-thiazole-4-carboxamide]: the IC50 in test [2] came out at 1800 nM; in test [3], 1600 nM.

`NC(=O)c1nc(-c2ccncc2)sc1NC(=O)c1ccc(N)cc1` [Compound A58, 5-[(4-aminobenzoyl)amino]-2-pyridin-4-yl-1,3-thiazole-4-carboxamide]: the figures for the half-maximal inhibitory concentration (IC50) in test [2] and in test [3] were 110 nM and 180 nM, respectively. For the molecule `Cn1cccc1C(=O)Nc1sc(-c2ccncc2)nc1C(N)=O` [Compound A59, 5-{[(1-methyl-1H-pyrrol-2-yl)carbonyl]amino}-2-pyridin-4-yl-1,3-thiazole-4-carboxamide], the 50% inhibitory concentration (IC50) was 400 nM in test [2] and 1200 nM in test [3]. As for `NC(=O)c1nc(-c2ccncc2)sc1NC(=O)c1ccco1` [Compound A60, 5-(2-furoylamino)-2-pyridin-4-yl-1,3-thiazole-4-carboxamide], the half-inhibitory concentration (IC50) in test [2] worked out at 3700 nM; in test [3] it was 6300 nM. For `NC(=O)c1nc(-c2ccncc2)sc1NC(=O)c1ccc[nH]1` [Compound A61, 2-pyridin-4-yl-5-[(1H-pyrrol-2-ylcarbonyl)amino]-1,3-thiazole-4-carboxamide] the same measures were 120 nM and 140 nM.

As to `NC(=O)c1nc(-c2ccncc2)sc1NC(=O)c1cc[nH]n1` [Compound A63, 5-[(1H-pyrazol-3-ylcarbonyl)amino]-2-pyridin-4-yl-1,3-thiazole-4-carboxamide], the concentration for half-maximal inhibition (IC50) was found to be 2700 nM in test [2] and 7300 nM in test [3]. Consider `NC(=O)c1nc(-c2ccncc2)sc1NC(=O)c1ccsc1` [Compound A65, 2-pyridin-4-yl-5-[(3-thienylcarbonyl)amino]-1,3-thiazole-4-carboxamide], for which the half-inhibitory concentration (IC50) worked out at 200 nM in test [2] and 480 nM in test [3].
